Measurements from patent US10624948B2, “Use of cell-permeable peptide inhibitors of the JNK signal transduction pathway for the treatment of various diseases” (Xigen Inflammation Ltd., priority 2013, dated 2020).
Square brackets hold non-standard residues; d marks the D form. Ends that are not written are not given here.

Tests used:
[1] = system: Sprague-Dawley albino rats, light-induced photoreceptor cell death; type: in vivo
Method: The aim of this study was to investigate the dose effect of XG-102 on light-induced photoreceptor cell death.
Test item (XG-102: 30 mg/ml, 3 mg/ml, and 0.3 mg/ml) and vehicle (0.9% NaCl) were administered by intravitreal injection in right eyes the day before induction. The reference (Phenyl-N-test-Butylnitrone (PBN) (50 mg/kg)) and vehicle were intraperitoneally injected 30 min before induction then, 3 times during 12 hours of light exposition, then once after induction. Animals were placed in constant light (7000 lux) for 24 h. Electroretinograms (ERG) were recorded before light treatment and on days 9, 16 and 23 after induction. Eyes were then taken for histology and outer nuclear layer (ONL) thickness assessment. The table below summarizes the allocation of animals in treatment groups:
For the intravitreal injection animals were anesthetized by intramuscular injection of a mixture of xylazine/ketamine. Test item (5 μl) and vehicle (5 μl) were injected in the right eye. The injection was performed under an operating microscope in the supratemporal area at pars plana using a 33G-needle mounted on a 50 μl Hamilton. The filled syringe was mounted into the UltraMicroPump III to achieve accurate injection in microliter range. Reference and vehicle were injected intraperitoneally at a dose volume of 2.5 ml/kg using a 30G-needle mounted on a 1 ml-syringe.
Light Exposure: The rats that had been dark-adapted overnight were exposed for 24 hours to a continuous white fluorescent light (7000 lx) in clear plastic cages. Each cage contained one rat. After exposure, the rats returned to rearing cyclic light conditions.
ERG was recorded before induction and 7, 14 and 21 days after cessation of exposure (Days 9, 16 and 23) on right eyes of dark-adapted and anesthezied animals. The latency times (for a- and b-wave) and the a-wave and b-wave amplitudes were measured for each ERG; the latency times were expressed as millisecond and the a-wave and b-wave as a percentage of the baseline value obtained before light exposure. 15 min before measurement 10 μl Mydriaticum® (0.5% tropicamide) were instilled for pupillary dilatation.
Measurement of the ONL Thickness: After ERG testing, animal was euthanized by an overdose of pentobarbital and the right eyes were enucleated, fixed and embedded in paraffin. Sections (5 μm thick) were performed along the vertical meridian and stained with Trichrome-Masson. The vertical meridian included the optic nerve.

[2] = system: TC-3 cells; assay: IL-1 induced pancreatic beta-cell death; type: cell-based; details: one single addition 1 μM
Method: Inhibition of IL-1 induced pancreatic beta-cell death by the D-TAT-IB1(s) peptide was analyzed. TC-3 cells were incubated as described above for 30 minutes with one single addition of the indicated peptides (1, μM), then IL-1 (10 ng/ml) was added.
Apoptotic cells were then counted after two days of incubation with IL-1 by use of Propidium Iodide and Hoechst 33342 nuclear staining. A minimum of 1,000 cells were counted for each experiment. Standard Error of the Means (SEM) are indicated, n=5.
Long term inhibition of IL-1P induced cell-death by the D-TAT-IB1 peptide was also analyzed. TC-3 cells were incubated as above for 30 minutes with one single addition of the indicated peptides (1 μM), then IL-1 (10 ng/ml) was added, followed by addition of the cytokine every two days. Apoptotic cells were then counted after 15 days of incubation with IL-1 by use of propidium iodide and Hoechst 33342 nuclear staining. […] A minimum of 1.000 cells were counted for each experiment.

[3] = system: JNKs from UV-light irradiated HeLa cells or IL-1 treated PTC cells; assay: c-Jun phosphorylation by activated JNKs pulled down with GST-Jun; type: biochemical; details: 25 μM
Method: The effects of the L-TAT or L-TAT-IB1(s) peptides as defined herein on JNKs activated by stressful stimuli were evaluated using GST-Jun to pull down JNKs from UV-light irradiated HeLa cells or IL-1 treated PTC cells. PTC cells were cultured as described above. HeLa cells were cultured in DMEM medium supplemented with 10% Fetal Calf Serum, 100 μg/mL Streptomycin, 100 units/ml Penicillin and 2 mM Glutamine. One hour prior to being used for cell extract preparation, PTC cells were activated with IL-1 as described above, whereas HeLa cells were activated by UV-light (20 J/m^2). Cell extracts were prepared from control, UV-light irradiated HeLa cells and IL-1 treated TC-3 cells by scraping the cell cultures in lysis buffer (20 mM Tris-acetate, 1 mM EGTA, 1% Triton X-100, 10 mM p-nitrophenyl-phosphate, 5 mM sodium pyrophosphate, 10 mMP-glycerophosphate, 1 mM dithiothreitol). Debris was removed by centrifugation for five minutes at 15,000 rpm in an SS-34 Beckman rotor. One-hundred μg extracts were incubated for one hour at room temperature with one μg GST-jun (amino acids 1-89) and 10 μL of glutathione-agarose beads (Sigma). Following four washes with the scraping buffer, the beads were resuspended in the same buffer supplemented with L-TAT or L-TAT-IB1(s) peptides (25 μM) for 20 minutes. […]

[4] = system: recombinant JNK1, JNK2 and JNK3; assay: Solid phase kinase assay, phosphorylation of c-Jun, ATF2 and Elk1; type: biochemical; details: dose response 0-25 μM
Method: The effects of the peptides on JNKs-mediated phosphorylation of their target transcription factors were investigated in vitro. Recombinant and non activated JNK1, JNK2 and JNK3 were produced using a TRANSCRIPTION AND TRANSLATION rabbit reticulocyte lysate kit (Promega) and used in solid phase kinase assays with c-Jun, ATF2 and Elk1, either alone or fused to glutathione-S-transferase (GST), as substrates. Dose response studies were performed wherein L-TAT or L-TAT-IB1(s) peptides (0-25 μM) were mixed with the recombinant JNK1, JNK2, or JNK3 kinases in reaction buffer (20 mM Tris-acetate, 1 mM EGTA, 10 mM p-nitrophenyl-phosphate (pNPP), 5 mM sodium pyrophosphate, 10 mM p-glycerophosphate, 1 mM dithiothreitol) for 20 minutes. The kinase reactions were then initiated by the addition of 10 mM MgCl2 and 5 pCi ^33P-dATP and 1 μg of either GST-Jun (aa 1-89), GST-AFT2 (aa 1-96) or GST-ELK1 (aa 307-428). GST-fusion proteins were purchased from Stratagene (La Jolla, Calif.).
Ten μL of glutathione-agarose beads were also added to the mixture. Reaction products were then separated by SDS-PAGE on a denaturing 10% polyacrylamide gel. Gels were dried and subsequently exposed to X-ray films (Kodak). […] The ability of D-TAT, D-TAT-IB1(s) and L-TAT-IB1(s) peptides (0-250 μM dosage study) to inhibit GST-Jun (aa 1-73) phosphorylation by recombinant JNK1, JNK2, and JNK3 by were analyzed as described above. […]

[5] = system: JNK signaling in HeLa cells (GAL-Jun, MKK4/MKK7); assay: GAL4 luciferase reporter of c-Jun activation; type: cell-based; details: 1 μM, 16 hours
Text: To determine whether the cell-permeable peptides as defined herein could block JNK signaling in vivo, we used a heterologous GAL4 system. HeLa cells, cultured as described above, were co-transfected with the 5×GAL-LUC reporter vector together with the GAL-Jun expression construct (Stratagene) comprising the activation domain of c-Jun (amino acids 1-89) linked to the GAL4 DNA-binding domain. Activation of JNK was achieved by the co-transfection of vectors expressing the directly upstream kinases MKK4 and MKK7 (see Whitmarsh et al., Science 285: 1573 (1999)). Briefly, 3×10^5 cells were transfected with the plasmids in 3.5-cm dishes using DOTAP (Boehringer Mannheim) following instructions from the manufacturer. For experiments involving GAL-Jun, 20 ng of the plasmid was transfected with 1 μg of the reporter plasmid pFR-Luc (Stratagene) and 0.5 μg of either MKK4 or MKK7 expressing plasmids. Three hours following transfection, cell media were changed and TAT and TAT-IB1(s) peptides (1 μM) were added. The luciferase activities were measured 16 hours later using the “Dual Reporter System” from Promega after normalization to protein content. […] Because HeLa cells express JNK1 and JNK2 isoforms but not JNK3, we transfected cells with JNK3.

[6] = system: AP-1 DNA binding complex, HeLa cell nuclear extracts; assay: Gel retardation assay with AP-1 probe; type: cell-based; details: in the presence of TNF-alpha
[7] = system: TC-3 cell cultures; assay: Cellular import of fluorescein labeled TAT and TAT-IB1(s) peptides; type: cell-based; details: labeled peptides 1 μM
Method: The ability of the L- and D-enantiomeric forms of TAT and TAT-IB1(s) peptides (“TAT-IB peptides”) to enter cells was evaluated. L-TAT, D-TAT, L-TAT-IB1(s), and D-TAT-IB1(s) peptides [SEQ ID NOs: 5, 6, 9 and 12, respectively] were labeled by N-terminal addition of a glycine residue conjugated to fluorescein. Labeled peptides (1 μM) were added to TC-3 cell cultures, which were maintained as described in Example 3. At predetermined times cells were washed with PBS and fixed for five minutes in ice-cold methanol-acetone (1:1) before being examined under a fluorescence microscope. Fluorescein-labeled BSA (1 μM, 12 moles/mole BSA) was used as a control.
Little to no signal was present at 48 hours.
Fluorescent signals from these all-D retro-inverso peptides were still very strong 1 week later, and the signal was only slightly diminished at 2 weeks post treatment.

Molecule: CC(C)(C)[N+]([O-])=Cc1ccccc1 [PBN, Phenyl-N-tert-Butylnitrone, reference compound]
- decrease of mean ONL thickness vs untreated eyes ([1]; PBN i.p., Day 23): 16%
- ERG B-wave amplitude, percent of the baseline, Mean ± SD ([1]; rat, in vivo, ip, 50 mg/kg): 100 ± 18.6%

Molecule: GRKKRRQRRRPPRPKRPTTLNLFPQVPRSQD (Description of sequence: L-TAT-IB1 (s) (see Table 1)) [L-TAT-IB1(s)]
- long term (15 day) protection from IL-1 induced cell-death ([2]; IL-1 every two days): but not L-TAT-IB1(s), was able to confer long term (15 day) protection
- prevention of phosphorylation of c-Jun by activated JNKs [3]: efficiently prevented phosphorylation of c-Jun by activated JNKs
- peptide dose giving nearly complete inhibition of c-Jun, ATF2 and Elk1 phosphorylation by JNKs [4]: 2.5 µM
- activation of c-Jun following MKK4 and MKK7 mediated activation of JNK (luciferase) [5]: blocked activation of c-Jun following MKK4 and MKK7 mediated activation of JNK
- formation of the AP-1 DNA binding complex [6]: decrease the formation of the AP-1 DNA binding complex

Molecule: Fluorescein-labeled BSA: fluorescein labeled bovine serum albumin (1 μM BSA, 12 moles fluorescein/mole BSA), control
- entry into cells [7]: did not enter the cells

Molecule: TDQSRPVQPFLNLTTPRKPRYTDPPRRRQRRKKRG ([dT][dD][dQ][dS][dR][dP][dV][dQ][dP][dF][dL][dN][dL][dT][dT][dP][dR][dK][dP][dR][dY][dT][dD][dP][dP][dR][dR][dR][dQ][dR][dR][dK][dK][dR]G) [D-TAT-IB1]
- IL-1 induced apoptosis after two days ([2]; IL-1 10 ng/ml): decreased IL-1 induced apoptosis to a similar extent as L-TAT-IB peptides
